pKi: −log10 of the molar value.

Aurora kinase A (Homo sapiens), sequence (O14965 whole entry, looked up): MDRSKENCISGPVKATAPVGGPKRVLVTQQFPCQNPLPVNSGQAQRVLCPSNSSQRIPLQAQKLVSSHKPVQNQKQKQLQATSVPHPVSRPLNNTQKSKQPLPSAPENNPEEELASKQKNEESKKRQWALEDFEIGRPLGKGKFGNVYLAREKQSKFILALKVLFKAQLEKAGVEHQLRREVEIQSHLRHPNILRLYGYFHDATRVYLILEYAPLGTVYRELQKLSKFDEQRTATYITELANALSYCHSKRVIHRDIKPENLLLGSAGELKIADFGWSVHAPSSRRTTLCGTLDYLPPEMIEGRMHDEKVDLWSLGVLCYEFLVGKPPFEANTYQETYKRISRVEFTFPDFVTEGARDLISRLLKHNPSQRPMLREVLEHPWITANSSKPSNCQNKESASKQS

The assay concerns the target Aurora kinase A (Homo sapiens) (UniProt O14965). The assay can be described thus: Inhibition of aurora 2.
As to `c1ccc(-c2c(-c3ccc4[nH]ncc4c3)nc3ncccn23)cc1` [2-(1H-indazol-5-yl)-3-phenylimidazo[1,2-a]pyrimidine], the pKi is under 5.31.
`CN(C)CCn1cnc(-c2ccc(F)cc2)c1-c1ccc2[nH]ncc2c1` [2-(4-(4-fluorophenyl)-5-(1H-indazol-5-yl)-1H-imidazol-1-yl)-N,N-dimethylethanamine] gave a negative-log Ki (pKi) of under 5.31.
In turn, `Cc1nc(-c2ccc3[nH]ncc3c2)cs1` [4-(1H-indazol-5-yl)-2-methylthiazole] gave a negative-log Ki (pKi) of 5.35.
The figure for `c1ccc(Nc2nc(-c3ccc4[nH]ncc4c3)c(-c3ccccc3)s2)cc1` [4-(1H-indazol-5-yl)-N,5-diphenylthiazol-2-amine] is under 5.31; for `c1ccc(CCNc2nc(-c3ccc4[nH]ncc4c3)cs2)cc1` [4-(1H-indazol-5-yl)-N-phenethylthiazol-2-amine] it is 6.09.
Regarding `Nc1nc(-c2ccc3[nH]ncc3c2)cs1` [4-(1H-indazol-5-yl)thiazol-2-amine], the pKi was 5.67.
The figure for `Fc1ccc(-c2ncn(CCCN3CCOCC3)c2-c2ccc3[nH]ncc3c2)cc1` [4-(3-(4-(4-fluorophenyl)-5-(1H-indazol-5-yl)-1H-imidazol-1-yl)propyl)morpholine] is under 5.31; for `Fc1ccc(-c2ncn(C3CCN(Cc4ccccc4)C3)c2-c2ccc3[nH]ncc3c2)cc1` (centres undefined) [5-(1-(1-benzylpyrrolidin-3-yl)-4-(4-fluorophenyl)-1H-imidazol-5-yl)-1H-indazole] it is under 5.31; for `Clc1ccc(Nc2c(-c3ccc4[nH]ncc4c3)nc3ncccn23)cc1` [N-(4-chlorophenyl)-2-(1H-indazol-5-yl)imidazo[1,2-a]pyrimidin-3-amine] it is 5.55.
For `c1ccc(CNc2nc(-c3ccc4[nH]ncc4c3)c(-c3ccccc3)s2)cc1` [N-benzyl-4-(1H-indazol-5-yl)-5-phenylthiazol-2-amine], the pKi was under 5.31.
Turning to `CCCCNc1c(-c2ccc3[nH]ncc3c2)nc2ncccn12` [N-butyl-2-(1H-indazol-5-yl)imidazo[1,2-a]pyrimidin-3-amine], the pKi is under 5.31.
The figure for `c1cn2c(NC3CCCCC3)c(-c3ccc4[nH]ncc4c3)nc2cn1` [N-cyclohexyl-2-(1H-indazol-5-yl)imidazo[1,2-a]pyrazin-3-amine] is 5.68; for `c1ccn2c(NC3CCCCC3)c(-c3ccc4[nH]ncc4c3)nc2c1` [N-cyclohexyl-2-(1H-indazol-5-yl)imidazo[1,2-a]pyridin-3-amine] it is 5.06.
The figure for `CCNc1nc(-c2ccc3[nH]ncc3c2)cs1` [N-ethyl-4-(1H-indazol-5-yl)thiazol-2-amine] is 5.47.

Usually pKi stands for −log10 of the Ki, conventionally taken in molar units. Low values mean a large Ki, high ones a small Ki.

For the origin of these results see BindingDB's records for doi:10.1016/j.bmcl.2011.01.001 (Abbott Laboratories, 2011).
